Laboratory results from ChEMBL document CHEMBL2074436, “Hepatobiliary elimination of the peroxisome proliferator nafenopin by conjugation and subsequent ATP-dependent transport across the canalicular membrane” (Biochem Pharmacol, 1994).

Key:
[1] = molecular target: T1, ATP-binding cassette sub-family C member 2 (Rattus norvegicus, UniProt Q63120); assay: TP_TRANSPORTER: inhibition of Naf-GlcA uptake (Naf-GlcA: 0.1 uM) in bile canalicular membrane vesicles of Wistar rat; assay type: functional, cell membranes, Bile canalicular membrane vesicle
T1 sequence (Q63120 whole entry): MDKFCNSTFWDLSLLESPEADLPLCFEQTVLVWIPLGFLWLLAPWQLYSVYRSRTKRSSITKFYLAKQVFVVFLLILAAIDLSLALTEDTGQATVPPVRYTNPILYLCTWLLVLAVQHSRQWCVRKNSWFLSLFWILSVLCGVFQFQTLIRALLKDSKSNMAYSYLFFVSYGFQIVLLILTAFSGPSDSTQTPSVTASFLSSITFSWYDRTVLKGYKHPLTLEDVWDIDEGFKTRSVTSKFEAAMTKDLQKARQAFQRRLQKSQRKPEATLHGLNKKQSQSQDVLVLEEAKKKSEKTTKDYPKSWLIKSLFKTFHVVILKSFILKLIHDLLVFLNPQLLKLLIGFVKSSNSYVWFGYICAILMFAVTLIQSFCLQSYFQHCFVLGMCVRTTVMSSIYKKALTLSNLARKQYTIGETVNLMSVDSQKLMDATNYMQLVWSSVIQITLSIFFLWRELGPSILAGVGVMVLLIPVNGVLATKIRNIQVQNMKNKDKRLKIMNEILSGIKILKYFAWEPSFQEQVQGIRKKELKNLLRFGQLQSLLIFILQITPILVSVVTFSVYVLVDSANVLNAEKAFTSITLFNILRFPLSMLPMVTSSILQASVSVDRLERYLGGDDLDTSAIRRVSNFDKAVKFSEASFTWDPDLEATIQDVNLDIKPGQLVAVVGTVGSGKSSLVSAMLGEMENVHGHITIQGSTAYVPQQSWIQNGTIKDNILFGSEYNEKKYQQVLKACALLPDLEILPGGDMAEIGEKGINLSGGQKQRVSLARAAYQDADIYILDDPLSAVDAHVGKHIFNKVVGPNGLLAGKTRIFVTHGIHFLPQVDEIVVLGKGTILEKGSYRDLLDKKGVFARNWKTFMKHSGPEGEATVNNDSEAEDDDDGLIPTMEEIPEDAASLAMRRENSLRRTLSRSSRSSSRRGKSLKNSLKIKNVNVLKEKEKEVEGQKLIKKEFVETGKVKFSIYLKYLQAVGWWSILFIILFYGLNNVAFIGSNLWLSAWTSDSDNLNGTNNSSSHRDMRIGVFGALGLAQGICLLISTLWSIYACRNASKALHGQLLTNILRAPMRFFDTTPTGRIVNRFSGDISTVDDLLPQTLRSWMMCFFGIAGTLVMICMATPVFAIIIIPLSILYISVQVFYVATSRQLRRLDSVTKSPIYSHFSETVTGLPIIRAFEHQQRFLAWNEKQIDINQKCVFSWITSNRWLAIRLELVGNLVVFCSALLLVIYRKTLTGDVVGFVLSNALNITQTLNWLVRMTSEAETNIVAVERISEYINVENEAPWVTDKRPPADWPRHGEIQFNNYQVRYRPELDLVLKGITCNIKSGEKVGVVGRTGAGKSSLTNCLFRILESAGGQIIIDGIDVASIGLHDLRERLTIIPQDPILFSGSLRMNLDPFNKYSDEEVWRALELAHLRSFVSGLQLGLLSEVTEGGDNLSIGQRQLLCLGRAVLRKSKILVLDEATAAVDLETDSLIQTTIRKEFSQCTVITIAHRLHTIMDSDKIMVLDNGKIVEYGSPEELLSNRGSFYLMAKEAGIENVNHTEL

[2] = molecular target: T1, ATP-binding cassette sub-family C member 2; assay: TP_TRANSPORTER: uptake in bile canalicular membrane vesicles from Wistar/TR- rat; assay type: functional, cell membranes, Bile canalicular membrane vesicle

Row | Structure (SMILES) | IC50 [1] | Activity [2]
1 | N[C@@H](CCC(=O)N[C@H](CSc1ccc([N+](=O)[O-])cc1[N+](=O)[O-])C(=O)NCC(=O)O)C(=O)O | 12 µM | –
2 | CCCCC/C=C\C\C=C/C=C/C=C/[C@@H](SC[C@@H](NC(=O)CC[C@H](N)C(=O)O)C(=O)NCC(=O)O)[C@@H](O)CCCC(=O)O [LEUKOTRIEN C4] | 0.2 µM | –
3 | CC(C)(Oc1ccc(C2CCCc3ccccc32)cc1)C(=O)O[C@@H]1O[C@H](O)[C@@H](O)[C@H](O)[C@H]1O (stereo partly drawn) [NAFENOPIN GLUCURONIDE] | – | substrate [+]
